Results reported in the NIST ThermoML archive (doi:10.1021/je700321s).

Assay: xn = mol fraction of the nth substance listed
Conditions: Liquid, Vibrating tube method

CC(C)O [propan-2-ol] + O=C=O
Conditions	mass density [kg/m3]
333.02 K, 8305 kPa, x2 = 0.6086	754.3
333.02 K, 8394 kPa, x2 = 0.4248	773.2
333.02 K, 8400 kPa, x2 = 0.6086	754.8
333.02 K, 8504 kPa, x2 = 0.6086	755.5
333.02 K, 8610 kPa, x2 = 0.6086	756
333.02 K, 8701 kPa, x2 = 0.6086	756.6
333.02 K, 8802 kPa, x2 = 0.4248	774.1
333.02 K, 8802 kPa, x2 = 0.6086	757.3
333.02 K, 8900 kPa, x2 = 0.6086	757.9
333.02 K, 8916 kPa, x2 = 0.4248	774.5
333.02 K, 9000 kPa, x2 = 0.4248	774.7
333.02 K, 9005 kPa, x2 = 0.6086	758.5
333.02 K, 9100 kPa, x2 = 0.4248	775
333.02 K, 9103 kPa, x2 = 0.6086	759
333.02 K, 9205 kPa, x2 = 0.4248	775.3
333.02 K, 9304 kPa, x2 = 0.4248	775.6
333.02 K, 9410 kPa, x2 = 0.4248	775.8
333.02 K, 9506 kPa, x2 = 0.4248	776.1
333.02 K, 9607 kPa, x2 = 0.4248	776.4
333.02 K, 9809 kPa, x2 = 0.4248	776.8
333.05 K, 4210 kPa, x2 = 0.2003	763.4
333.05 K, 4492 kPa, x2 = 0.2003	763.8
333.05 K, 4799 kPa, x2 = 0.2003	764.3
333.05 K, 5001 kPa, x2 = 0.2003	764.6
333.05 K, 5470 kPa, x2 = 0.2003	765.3
333.05 K, 5996 kPa, x2 = 0.2003	766.1
333.05 K, 6511 kPa, x2 = 0.2003	766.9
333.05 K, 7008 kPa, x2 = 0.2003	767.7
333.05 K, 7519 kPa, x2 = 0.2003	768.4
333.05 K, 8008 kPa, x2 = 0.2003	769.2
333.05 K, 8503 kPa, x2 = 0.2003	769.9
333.05 K, 9019 kPa, x2 = 0.2003	770.6
333.05 K, 9506 kPa, x2 = 0.2003	771.3
333.05 K, 9994 kPa, x2 = 0.2003	772.1
347.93 K, 7801 kPa, x2 = 0.4248	744.8
347.93 K, 7908 kPa, x2 = 0.4248	745.1
347.93 K, 7999 kPa, x2 = 0.4248	745.5
347.93 K, 8130 kPa, x2 = 0.4248	745.9
347.93 K, 8239 kPa, x2 = 0.4248	746.2
347.93 K, 8408 kPa, x2 = 0.4248	746.8
347.93 K, 8501 kPa, x2 = 0.4248	747.2
347.93 K, 8600 kPa, x2 = 0.4248	747.4
347.93 K, 8712 kPa, x2 = 0.4248	747.8
347.93 K, 8801 kPa, x2 = 0.4248	748.2
347.93 K, 8890 kPa, x2 = 0.4248	748.4
347.93 K, 9033 kPa, x2 = 0.4248	748.8
347.93 K, 9105 kPa, x2 = 0.4248	749.1
347.93 K, 9244 kPa, x2 = 0.4248	749.4
347.93 K, 9410 kPa, x2 = 0.4248	750
347.93 K, 9501 kPa, x2 = 0.4248	750.2
347.93 K, 9608 kPa, x2 = 0.4248	750.7
347.94 K, 9809 kPa, x2 = 0.6086	716
347.94 K, 9815 kPa, x2 = 0.6086	717
347.94 K, 9822 kPa, x2 = 0.6086	718.1
347.94 K, 9831 kPa, x2 = 0.6086	719.1
347.94 K, 9840 kPa, x2 = 0.6086	719.7
347.94 K, 9850 kPa, x2 = 0.6086	720
347.94 K, 9861 kPa, x2 = 0.6086	720
347.94 K, 9873 kPa, x2 = 0.6086	720.2
347.94 K, 9885 kPa, x2 = 0.6086	720.2
347.94 K, 9897 kPa, x2 = 0.6086	720.3
347.94 K, 9910 kPa, x2 = 0.6086	720.4
347.94 K, 9949 kPa, x2 = 0.6086	720.8
347.94 K, 10004 kPa, x2 = 0.6086	721.1
347.94 K, 10052 kPa, x2 = 0.6086	721.5
347.94 K, 10104 kPa, x2 = 0.6086	721.9
347.94 K, 10152 kPa, x2 = 0.6086	722.2
347.95 K, 3317 kPa, x2 = 0.139	742.5
347.95 K, 3516 kPa, x2 = 0.139	742.7
347.95 K, 4002 kPa, x2 = 0.139	743.5
347.95 K, 4464 kPa, x2 = 0.139	744.3
347.95 K, 5008 kPa, x2 = 0.139	745.1
347.95 K, 5502 kPa, x2 = 0.139	745.9
347.95 K, 6011 kPa, x2 = 0.139	746.7
347.95 K, 6501 kPa, x2 = 0.139	747.5
347.95 K, 7037 kPa, x2 = 0.139	748.3
347.95 K, 7523 kPa, x2 = 0.139	749.1
347.95 K, 8023 kPa, x2 = 0.139	749.8
347.95 K, 8497 kPa, x2 = 0.139	750.5
347.95 K, 8993 kPa, x2 = 0.139	751.3
347.95 K, 9568 kPa, x2 = 0.139	752.1
347.95 K, 10032 kPa, x2 = 0.139	752.8
347.95 K, 11400 kPa, x2 = 0.7943	647.2
347.95 K, 11604 kPa, x2 = 0.7943	653.3
347.95 K, 11812 kPa, x2 = 0.7943	658.7
347.95 K, 12007 kPa, x2 = 0.7943	663
347.95 K, 12201 kPa, x2 = 0.7943	666.8
347.95 K, 12502 kPa, x2 = 0.7943	672.6
347.95 K, 12802 kPa, x2 = 0.7943	677.6
347.95 K, 13202 kPa, x2 = 0.7943	684
347.95 K, 13504 kPa, x2 = 0.7943	688.5
347.95 K, 13802 kPa, x2 = 0.7943	692.8
347.95 K, 14109 kPa, x2 = 0.7943	696.9
347.95 K, 14406 kPa, x2 = 0.7943	700.5
347.95 K, 14703 kPa, x2 = 0.7943	703.9
347.95 K, 15000 kPa, x2 = 0.7943	707.4
347.95 K, 15207 kPa, x2 = 0.7943	709.6
347.95 K, 15407 kPa, x2 = 0.7943	711.9
347.95 K, 15610 kPa, x2 = 0.7943	714
347.95 K, 15813 kPa, x2 = 0.7943	716.1
347.95 K, 16004 kPa, x2 = 0.7943	717.9
347.95 K, 16303 kPa, x2 = 0.7943	720.7
347.95 K, 16501 kPa, x2 = 0.7943	722.4
347.95 K, 16808 kPa, x2 = 0.7943	725
347.96 K, 10989 kPa, x2 = 0.9492	348.5
347.96 K, 11505 kPa, x2 = 0.9492	382.4
347.96 K, 12004 kPa, x2 = 0.9492	415.7
347.96 K, 12507 kPa, x2 = 0.9492	448.4
347.96 K, 13000 kPa, x2 = 0.9492	477.1
347.96 K, 13503 kPa, x2 = 0.9492	503
347.96 K, 14006 kPa, x2 = 0.9492	527.8
347.96 K, 14511 kPa, x2 = 0.9492	550.1
347.96 K, 15011 kPa, x2 = 0.9492	569.6
347.96 K, 15495 kPa, x2 = 0.9492	586.6
347.96 K, 15997 kPa, x2 = 0.9492	602.4
347.96 K, 16514 kPa, x2 = 0.9492	617
347.96 K, 17014 kPa, x2 = 0.9492	629.5
347.96 K, 17513 kPa, x2 = 0.9492	640.4
347.96 K, 17988 kPa, x2 = 0.9492	648.6
347.97 K, 5098 kPa, x2 = 0.2003	745.6
347.97 K, 5302 kPa, x2 = 0.2003	746.1
347.97 K, 5533 kPa, x2 = 0.2003	746.5
347.97 K, 6025 kPa, x2 = 0.2003	747.4
347.97 K, 6609 kPa, x2 = 0.2003	748.4
347.97 K, 7005 kPa, x2 = 0.2003	749.2
347.97 K, 7508 kPa, x2 = 0.2003	750.1
347.97 K, 8010 kPa, x2 = 0.2003	751
347.97 K, 8501 kPa, x2 = 0.2003	751.7
347.97 K, 8915 kPa, x2 = 0.2003	752.4
347.97 K, 9581 kPa, x2 = 0.2003	753.5
347.97 K, 9706 kPa, x2 = 0.2003	753.7
347.97 K, 10014 kPa, x2 = 0.2003	754.2
